Experimental data reported in patent US12110293B2, “Substituted triazolo quinoxaline derivatives” (GRÜNENTHAL GMBH, priority 2018, dated 2024).

Molecular target: T1, glucocorticoid receptor (Homo sapiens, UniProt P04150)
T1 construct: expressed in transfected cells
T1 sequence (P04150 524-758 limits assumed): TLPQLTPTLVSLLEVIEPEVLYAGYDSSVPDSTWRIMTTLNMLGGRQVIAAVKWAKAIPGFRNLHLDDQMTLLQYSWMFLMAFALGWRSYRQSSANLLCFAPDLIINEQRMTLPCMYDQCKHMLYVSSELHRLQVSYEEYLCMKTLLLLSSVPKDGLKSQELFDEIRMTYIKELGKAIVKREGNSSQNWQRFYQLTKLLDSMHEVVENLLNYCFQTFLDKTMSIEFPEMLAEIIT
Assay: Agonistic mode of action on the glucocorticoid receptor (CHO-Gal4/GR luciferase reporter cell line)
Format: cell-based
Settings: range class observed in the agonistic assay or the antagonistic assay (CHO-Gal4/GR reporter cells); table does not say which mode applies per example
Procedure, shortened: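 Agonism measured as dose-dependent luciferase luminescence (FLIPR Tetra) from a GAL4-UAS reporter driven by GAL4 DBD fused to GR ligand-binding domain in stable CHO cells. Eight half-log doses, 10 μM to 0.003 μM final in 0.5% DMSO, quadruplicate, on cells seeded 24 h earlier at 5000/well; EC50 derived.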

Compound	IC50 or EC50 (agonist or antagonist mode not specified) [µM]
COCCn1ccc2c(-c3c(OC)cc4c(c3C)-n3c(C)nnc3C(C)(C)N4)cccc21 [Example 344, 7-Methoxy-8-[1-(2-methoxy-ethyl)-1H-indol-4-yl]-1,4,4,9-tetramethyl-5H-[1,2,4]triazolo[4,3-a] quinoxaline]	1 to 15
Cc1c(-c2cc(F)cc3c2ccn3S(C)(=O)=O)c(Cl)cc2c1-n1c(C)nnc1C(C)(C)N2 [Example 333, 7-Chloro-8-(6-fluoro-1-methylsulfonyl-1H-indol-4-yl)-1,4,4,9-tetramethyl-5H-[1,2,4] triazolo[4,3-a]quinoxaline]	< 0.1
CC#Cc1c[nH]c2c(-c3c(F)cc4c(c3C)-n3c(CCOC)nnc3C(C)(C)N4)cc(F)cc12 [Example 79, 7-fluoro-8-(5-fluoro-3-(prop-1-yn-1-yl)-1H-indol-7-yl)-1-(2-methoxyethyl)-4,4,9-trimethyl-4,5-dihydro-[1,2,4]triazolo[4,3-a]quinoxaline]	1 to 15
Cc1c[nH]c2c(-c3c(F)cc4c(c3F)-n3c(Cc5cccnc5)nnc3C(C)(C)N4)cc(F)cc12 [Example 73, 7,9-Difluoro-8-(5-fluoro-3-methyl-1H-indol-7-yl)-4,4-dimethyl-1-(pyridin-3-yl-methyl)-5H-[1,2,4]triazolo[4,3-a]quinoxaline]	0.1 to 1
CCS(=O)(=O)n1ccc2c(-c3c(F)cc4c(c3OC)-n3c(C)nnc3C(C)(C)N4)cc(F)cc21 [Example 362, 8-[1-(Ethylsulfonyl)-6-fluoro-1H-indol-4-yl]-7-fluoro-9-methoxy-1,4,4-trimethyl-5H-[1,2,4]triazolo[4,3-a]quinoxaline]	< 0.1
CCc1c(-c2cccc3c2cnn3S(C)(=O)=O)c(F)cc2c1-n1c(C)nnc1C(C)(C)N2 [Example 51, 9-Ethyl-7-fluoro-1,4,4-trimethyl-8-(1-methylsulfonyl-1H-indazol-4-yl)-5H-[1,2,4]triazolo[4,3-a]quinoxaline]	0.1 to 1
Cc1nnc2n1-c1c(cc(C(F)F)c(-c3cc(F)cc4c3ccn4S(C)(=O)=O)c1F)NC2(C)C [Example 298, 7-(Difluoro-methyl)-9-fluoro-8-(6-fluoro-1-methylsulfonyl-1H-indol-4-yl)-1,4,4-trimethyl-5H-[1,2,4]triazolo[4,3-a]quinoxaline]	1 to 15
Cc1nnc2n1-c1c(cc(F)c(-c3cc(F)cc4c3cnn4S(C)(=O)=O)c1C(F)F)NC2(C)C [Example 346, 9-(Difluoro-methyl)-7-fluoro-8-(6-fluoro-1-methylsulfonyl-1H-indazol-4-yl)-1,4,4-trimethyl-5H-[1,2,4]triazolo[4,3-a]quinoxaline]	0.1 to 1
Cc1c(-c2cccc3c2cnn3S(C)(=O)=O)c(Cl)cc2c1-n1c(C)nnc1C(C)(C)N2 [Example 386, 7-Chloro-1,4,4,9-tetramethyl-8-(1-methylsulfonyl-1H-indazol-4-yl)-5H-[1,2,4]triazolo[4,3-a] quinoxaline]	1 to 15
COc1c(-c2cccc3c2ccn3CC(F)F)c(F)cc2c1-n1c(C)nnc1C(C)(C)N2 [Example 397, 8-[1-(2,2-Difluoro-ethyl)-1H-indol-4-yl]-7-fluoro-9-methoxy-1,4,4-trimethyl-5H-[1,2,4]triazolo[4,3-a]quinoxaline]	0.1 to 1
Cc1nnc2n1-c1c(cc(OC(F)F)c(-c3cccc4c3cnn4C)c1F)NC2(C)C [Example 273, 7-(Difluoro-methoxy)-9-fluoro-1,4,4-trimethyl-8-(1-methyl-1H-indazol-4-yl)-5H-[1,2,4]triazolo[4,3-a]quinoxaline]	1 to 15
Cc1nnc2n1-c1c(cc(OC(F)F)c(-c3cc(F)cc4c3ccn4S(C)(=O)=O)c1F)NC2(C)C [Example 268, 7-(Difluoro-methoxy)-9-fluoro-8-(6-fluoro-1-methylsulfonyl-1H-indol-4-yl)-1,4,4-trimethyl-5H-[1,2,4]triazolo[4,3-a]quinoxaline]	1 to 15
Cc1nnc2n1-c1c(cc(OC(F)F)c(-c3cccc4c3ccn4S(C)(=O)=O)c1F)NC2(C)C [Example 275, 7-(Difluoro-methoxy)-9-fluoro-1,4,4-trimethyl-8-(1-methylsulfonyl-1H-indol-4-yl)-5H-[1,2,4]triazolo[4,3-a]quinoxaline]	1 to 15
Cc1nnc2n1-c1c(cc(F)c(-c3cccc4c3ccn4CC(=O)N(C)C)c1F)NC2(C)C [Example 212, 2-[4-(7,9-Difluoro-1,4,4-trimethyl-5H-[1,2,4]triazolo[4,3-a]quinoxalin-8-yl)-1H-indol-1-yl]-N,N-dimethyl-acetamide]	1 to 15
COc1cc2c(c(F)c1-c1cc(F)cc3c(C)c[nH]c13)-n1c(C)nnc1C(C)(C)N2 [Example 251, 9-Fluoro-8-(5-fluoro-3-methyl-1H-indol-7-yl)-7-methoxy-1,4,4-trimethyl-5H-[1,2,4]triazolo[4,3-a]quinoxaline]	0.1 to 1
CCS(=O)(=O)n1ccc2c(-c3c(OC)cc4c(c3C(F)(F)F)-n3c(C)nnc3C(C)(C)N4)cccc21 [Example 371, 8-[1-(Ethylsulfonyl)-1H-indol-4-yl]-7-methoxy-1,4,4-trimethyl-9-(trifluoromethyl)-5H-[1,2,4]triazolo[4,3-a]quinoxaline]	0.1 to 1
Cc1nnc2n1-c1c(ccc(-c3cccc4c3ccn4S(C)(=O)=O)c1C(F)(F)F)NC2(C)C [Example 498, 1,4,4-Trimethyl-8-(1-methylsulfonyl-1H-indol-4-yl)-9-(trifluoromethyl)-5H-[1,2,4]triazolo[4,3-a]quinoxaline]	0.1 to 1

Other lines, results leading:

IC50 or EC50 (agonist or antagonist mode not specified) [µM]	Compound
0.1 to 1	Cc1nnc2n1-c1c(cc(F)c(-c3cccc4c(C5CC5)c[nH]c34)c1C(F)(F)F)NC2(C)C [Example 87, 8-(3-cyclopropyl-1H-indol-7-yl)-7-fluoro-1,4,4-trimethyl-9-(trifluoromethyl)-4,5-dihydro-[1,2,4]triazolo[4,3-a]quinoxaline]
0.1 to 1	Cc1c(-c2cccc3c(C#CC(C)(C)O)c[nH]c23)c(F)cc2c1-n1c(C)nnc1C(C)(C)N2 [Example 39]
0.1 to 1	COc1cc(-c2c(F)cc3c(c2C)-n2c(C)nnc2C(C)(C)N3)c2ccn(S(C)(=O)=O)c2c1 [Example 537, 7-Fluoro-8-(6-methoxy-1-methylsulfonyl-1H-indol-4-yl)-1,4,4,9-tetramethyl-5H-[1,2,4] triazolo[4,3-a]quinoxaline]
< 0.1	Cc1c(-c2cccc3c(C)c[nH]c23)c(Cl)cc2c1-n1c(C)nnc1C(C)(C)N2 [Example 358, 7-Chloro-1,4,4,9-tetramethyl-8-(3-methyl-1H-indol-7-yl)-5H-[1,2,4]triazolo[4,3-a]quinoxaline]
0.1 to 1	Cc1c(-c2cccc3c(C)c[nH]c23)c(OC(F)F)cc2c1-n1c(C)nnc1C(C)(C)N2 [Example 360, 7-(Difluoro-methoxy)-1,4,4,9-tetramethyl-8-(3-methyl-1H-indol-7-yl)-5H-[1,2,4]triazolo[4,3-a]quinoxaline]
1 to 15	Cc1nnc2n1-c1c(cc(F)c(-c3cccc4nn(C)cc34)c1F)NC2(C)C [Example 222, 7,9-Difluoro-1,4,4-trimethyl-8-(2-methyl-2H-indazol-4-yl)-5H-[1,2,4]triazolo[4,3-a]quinoxaline]
0.1 to 1	Cc1nnc2n1-c1c(cc(F)c(-c3cccc4c(C(F)(F)F)c[nH]c34)c1F)NC2(C)C [Example 10, 7,9-difluoro-1,4,4-trimethyl-8-(3-(trifluoromethyl)-1H-indol-7-yl)-4,5-dihydro-[1,2,4]triazolo[4,3-a]quinoxaline]
1 to 15	CC#Cc1c[nH]c2c(-c3c(F)cc4c(c3C)-n3c(C(C)O)nnc3C(C)(C)N4)cc(F)cc12 (stereo not drawn) [Example 78]
0.1 to 1	Cc1n[nH]c2c(-c3c(F)cc4c(c3F)-n3c(C)nnc3C(C)(C)N4)cccc12 [Example 354, 7,9-Difluoro-1,4,4-trimethyl-8-(3-methyl-1H-indazol-7-yl)-5H-[1,2,4]triazolo[4,3-a]quinoxaline]
< 0.1	Cc1c(-c2cccc3c(C4CCOC4)c[nH]c23)c(F)cc2c1-n1c(C)nnc1C(C)(C)N2 (stereo not drawn) [Example 42, 7-fluoro-1,4,4,9-tetramethyl-8-(3-(tetrahydrofuran-3-yl)-1H-indol-7-yl)-4,5-dihydro-[1,2,4]triazolo[4,3-a]quinoxaline]
0.1 to 1	Cc1c(-c2ccc(F)c3[nH]ncc23)c(F)cc2c1-n1c(C)nnc1C(C)(C)N2 [Example 524, 7-Fluoro-8-(7-fluoro-1H-indazol-4-yl)-1,4,4,9-tetramethyl-5H-[1,2,4]triazolo[4,3-a]quinoxaline]
< 0.1	Cc1cc(-c2c(F)cc3c(c2C)-n2c(C)nnc2C(C)(C)N3)c2ccn(S(C)(=O)=O)c2c1 [Example 493, 7-Fluoro-1,4,4,9-tetramethyl-8-(6-methyl-1-methylsulfonyl-1H-indol-4-yl)-5H-[1,2,4]triazolo[4,3-a] quinoxaline]
1 to 15	COc1cc2c(c(F)c1-c1cccc3[nH]ccc13)-n1c(C)nnc1C(C)(C)N2 [Example 256, 9-Fluoro-8-(1H-indol-4-yl)-7-methoxy-1,4,4-trimethyl-5H-[1,2,4]triazolo[4,3-a]quinoxaline]
